Experimental findings from publication PMC4445146 (European journal of medicinal chemistry, 2014) are described below.

The target of experiment [1] is Bcl-xL/Bim (Homo sapiens, UniProt Q07817). Description: ELISA, disruption of Bcl-xL/Bim binding. The conditions noted are these: for fold more potent than 1 against Bcl-xL/Bim: ELISA IC50 relative to (±)-marinopyrrole A (1); for IC50: read-out: Bcl-xL/Bim IC50, ELISA, average ± SEM, n ≥ 3; for selectivity for Bcl-xL over Mcl-1: ratio of ELISA IC50 values.
For experiment [2], the system named is MDA-MB-468 breast cancer cells. The format is cell-based, human. The settings on record: MDA-MB-468 cells; for decrease of Mcl-1 levels and induction of apoptosis (caspase 3 activation): 3 μM, western blot; for decrease of Mcl-1 levels and caspase 3 cleavage: concentrations as high as 10 μM (data not shown).
For experiment [3], the target named is Mcl-1/Bim (Homo sapiens, UniProt Q07820). Description: ELISA, disruption of Mcl-1/Bim binding. The settings on record: for fold more potent than 1 against Mcl-1/Bim: ELISA IC50 relative to (±)-marinopyrrole A (1); for IC50: read-out: Mcl-1/Bim IC50, ELISA, average ± SEM, n ≥ 3.
Chain of Mcl-1/Bim (Q07820 whole entry): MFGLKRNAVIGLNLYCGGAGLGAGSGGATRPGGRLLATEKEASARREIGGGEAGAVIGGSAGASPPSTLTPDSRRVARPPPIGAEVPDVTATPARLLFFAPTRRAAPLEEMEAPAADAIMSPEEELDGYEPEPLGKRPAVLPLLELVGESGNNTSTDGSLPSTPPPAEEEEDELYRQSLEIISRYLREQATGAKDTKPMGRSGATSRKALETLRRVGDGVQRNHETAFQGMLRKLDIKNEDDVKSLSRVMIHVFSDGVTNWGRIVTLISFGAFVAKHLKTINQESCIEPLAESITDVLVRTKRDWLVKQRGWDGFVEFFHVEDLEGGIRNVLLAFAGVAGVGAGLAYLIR

Chain of Bcl-xL/Bim (Q07817 whole entry): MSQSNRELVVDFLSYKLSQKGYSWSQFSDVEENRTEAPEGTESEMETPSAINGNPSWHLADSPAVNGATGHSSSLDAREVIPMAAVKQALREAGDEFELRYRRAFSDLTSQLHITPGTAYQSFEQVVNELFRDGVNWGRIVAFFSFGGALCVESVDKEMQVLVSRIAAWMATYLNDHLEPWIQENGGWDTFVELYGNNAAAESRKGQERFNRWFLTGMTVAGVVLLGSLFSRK

With “(4,4′,5,5′-Tetrachloro-1′H-1,3′-bipyrrole-2,2′-diyl)bis((2-hydroxy-4-(1-octyl-1H-1,2,3-triazol-5-yl)phenyl)methanone) [compound 42]”, in experiment [1], the “fold more potent than 1 against Bcl-xL/Bim” value was found to be 33 fold and the IC50 came out at 0.5 ± 0.1 µM. The “decrease of Mcl-1 levels and induction of apoptosis (caspase 3 activation)” value (“decrease … (caspase 3 activation)” for short) in experiment [2] is on record as “little activity in intact cells”. In experiment [3], the “fold more potent than 1 against Mcl-1/Bim” value is listed as 15 fold and the IC50 was 0.6 ± 0.3 µM. `C#Cc1ccc(C(=O)c2[nH]c(Cl)c(Cl)c2-n2c(C(=O)c3ccc(C#C)cc3O)cc(Cl)c2Cl)c(O)c1` [compound 25, (4,4′,5,5′-Tetrachloro-1′H-1,3′-bipyrrole-2,2′-diyl)bis((4-ethynyl-2-hydroxyphenyl)methanone)]: the IC50 in experiment [1] was found to be 5.6 ± 0.5 µM; in experiment [3], 3.9 ± 0.2 µM. With `O=C(c1ccc(O)cc1O)c1[nH]c(Cl)c(Cl)c1-n1c(C(=O)c2ccc(O)cc2O)cc(Cl)c1Cl` [compound 29], in experiment [2], the “decrease of Mcl-1 levels and caspase 3 cleavage” value is “inactive at decreasing Mcl-1 levels and at inducing caspase 3 cleavage”. For `O=C(O)Cn1cc(-c2ccc(C(=O)c3[nH]c(Cl)c(Cl)c3-n3c(C(=O)c4ccc(-c5cn(CC(=O)O)nn5)cc4O)cc(Cl)c3Cl)c(O)c2)nn1` [compound 45, 2,2′-(4,4′-((4,4′,5,5′-Tetrachloro-1′H-1,3′-bipyrrole-2,2′-dicarbonyl)bis(3-hydroxy-4,1-phenylene))bis(1H-1,2,3-triazole-4,1-diyl))diacetic acid], the IC50 in experiment [3] came out at 16.5 ± 1.9 µM. `O=C(c1ccc(OS(=O)(=O)C(F)(F)F)cc1O)c1[nH]c(Cl)c(Cl)c1-n1c(C(=O)c2ccccc2O)cc(Cl)c1Cl` [compound 28]: in experiment [1], the “fold more potent than 1 against Bcl-xL/Bim” value was “eight”. For the same compound, the “fold more potent than 1 against Mcl-1/Bim” value in experiment [3] is reported as “nine”. On to `CC(C)(C)OC(=O)Cn1cc(-c2cc(O)c(C(=O)c3[nH]c(Cl)c(Cl)c3-n3c(C(=O)c4cc(Cl)c(-c5cn(CC(=O)OC(C)(C)C)nn5)cc4O)cc(Cl)c3Cl)cc2Cl)nn1` [compound 37, Di-tert-butyl 2,2′-(4,4′-((4,4′,5,5′-tetrachloro-1′H-1,3′-bipyrrole-2,2′-dicarbonyl)bis(2-chloro-5-hydroxy-4,1-phenylene))bis(1H-1,2,3-triazole-4,1-diyl))diacetate], for which, in experiment [2], the “decrease … (caspase 3 activation)” value is given as “little activity in intact cells”. For `O=C(c1ccc(-c2cn(-c3ccccc3)nn2)cc1O)c1[nH]c(Cl)c(Cl)c1-n1c(C(=O)c2ccc(-c3cn(-c4ccccc4)nn3)cc2O)cc(Cl)c1Cl` [compound 40], in experiment [1], the “selectivity for Bcl-xL over Mcl-1” value was found to be 2 fold. The “decrease … (caspase 3 activation)” value in experiment [2] is given as “little activity in intact cells”.

Turning to `CCOC(=O)Cn1cc(-c2ccc(C(=O)c3[nH]c(Cl)c(Cl)c3-n3c(C(=O)c4ccc(-c5cn(CC(=O)OCC)nn5)cc4O)cc(Cl)c3Cl)c(O)c2)nn1` [compound 43, Diethyl 2,2′-(4,4′-((4,4′,5,5′-tetrachloro-1′H-1,3′-bipyrrole-2,2′-dicarbonyl)bis(3-hydroxy-4,1-phenylene))bis(1H-1,2,3-triazole-4,1-diyl))diacetate], in experiment [3], the IC50 stood at 18.4 ± 0.3 µM. Same read-out and setting: in the case of `CCOC(=O)Cn1cc(-c2cc(O)c(C(=O)c3[nH]c(Cl)c(Cl)c3-n3c(C(=O)c4cc(Cl)c(-c5cn(CC(=O)OCC)nn5)cc4O)cc(Cl)c3Cl)cc2Cl)nn1` [compound 36, Diethyl 2,2′-(4,4′-((4,4′,5,5′-tetrachloro-1′H-1,3′-bipyrrole-2,2′-dicarbonyl)bis(2-chloro-5-hydroxy-4,1-phenylene))bis(1H-1,2,3-triazole-4,1-diyl))diacetate] it was 7.8 ± 1.5 µM. As for `CCOC(=O)CSc1ccc(C(=O)c2[nH]c(Cl)c(Cl)c2-n2c(C(=O)c3ccc(SCC(=O)OCC)cc3O)cc(Cl)c2Cl)c(O)c1` [compound 31], the “decrease … (caspase 3 activation)” value in experiment [2] is reported as “little activity in intact cells”. Regarding `O=C(O)Cn1cc(-c2cc(O)c(C(=O)c3[nH]c(Cl)c(Cl)c3-n3c(C(=O)c4cc(Cl)c(-c5cn(CC(=O)O)nn5)cc4O)cc(Cl)c3Cl)cc2Cl)nn1` [compound 38, 2,2′-(4,4′-((4,4′,5,5′-Tetrachloro-1′H-1,3′-bipyrrole-2,2′-dicarbonyl)bis(2-chloro-5-hydroxy-4,1-phenylene))bis(1H-1,2,3-triazole-4,1-diyl))diacetic acid], the “decrease of Mcl-1 levels and caspase 3 cleavage” value in experiment [2] was “inactive at decreasing Mcl-1 levels and at inducing caspase 3 cleavage”. Further, the IC50 in experiment [3] was found to be 5.2 ± 0.8 µM. For the compound `Cc1cc(O)c(C(=O)c2[nH]c(Cl)c(Cl)c2-n2c(C(=O)c3cc(Cl)c(C)cc3O)cc(Cl)c2Cl)cc1Cl` [compound 24, (4,4′,5,5′-Tetrachloro-1′H-1,3′-bipyrrole-2,2′-diyl)bis((5-chloro-2-hydroxy-4-methylphenyl)methanone)], the IC50 turned out to be 2.5 ± 0.4 µM in experiment [1] and 2.6 ± 0.6 µM in experiment [3]. For the compound `COc1ccc(CSc2ccc(C(=O)c3[nH]c(Cl)c(Cl)c3-n3c(C(=O)c4ccc(SCc5ccc(OC)cc5)cc4O)cc(Cl)c3Cl)c(O)c2)cc1` [compound 33], in experiment [2], the “decrease … (caspase 3 activation)” value is reported as “little activity in intact cells”. On the same count and under the same terms, the result for `O=C(c1ccccc1O)c1[nH]c(Cl)c(Cl)c1-n1c(C(=O)c2c(O)cccc2F)cc(Cl)c1Cl` [compound 52] reads “not active in intact cells”. For `Cn1c(Cl)c(Cl)c(-n2c(C(=O)c3ccccc3O)cc(Cl)c2Cl)c1C(=O)c1ccccc1O` [compound 54, (4,4′,5,5′-tetrachloro-1′-methyl-1′H-[1,3′-bipyrrole]-2,2′-diyl)bis((2-hydroxyphenyl)methanone)], the “selectivity for Bcl-xL over Mcl-1” value in experiment [1] was “selectivity for Bcl-xL/Bim over Mcl-/Bim”. As to `CCc1ccc(C(=O)c2[nH]c(Cl)c(Cl)c2-n2c(C(=O)c3ccc(CC)cc3O)cc(Cl)c2Cl)c(O)c1` [compound 27, (4,4′,5,5′-Tetrachloro-1′H-1,3′-bipyrrole-2,2′-diyl)bis((4-ethyl-2-hydroxyphenyl)methanone)], the IC50 came out at 3.9 ± 1.3 µM in experiment [1] and 2.1 ± 0.5 µM in experiment [3].

`O=C(c1cc(Cl)c(O)cc1O)c1[nH]c(Cl)c(Cl)c1-n1c(C(=O)c2cc(Cl)c(O)cc2O)cc(Cl)c1Cl` [compound 30]: the “decrease of Mcl-1 levels and caspase 3 cleavage” value in experiment [2] was “inactive at decreasing Mcl-1 levels and at inducing caspase 3 cleavage”. As for `O=C(c1ccccc1O)c1[nH]c(Cl)c(Cl)c1-n1c(C(=O)c2cc(Cl)ccc2O)cc(Cl)c1Cl` [compound 48], the “decrease … (caspase 3 activation)” value in experiment [2] is listed as “not active in intact cells”. Same read-out and setting: the result for `O=C(c1ccc(SCc2ccccc2)cc1O)c1[nH]c(Cl)c(Cl)c1-n1c(C(=O)c2ccc(SCc3ccccc3)cc2O)cc(Cl)c1Cl` [compound 32] reads “little activity in intact cells”.
